# Assay results: patent US12486303B2, “Use of peptide for inhibiting functions and expressions of multiple disease biomarkers” (NIBEC CO., LTD., priority 2018, dated 2025)
# Peptide text beside a SMILES is read from it.
# Assays:
# HDAC5 protein = molecular target: T1, HDAC5 protein (Homo sapiens, UniProt Q9UQL6); test: Biacore T200 binding affinity to immobilised HDAC5 protein; conditions: CM5 chip, 1:1 binding model; for kon: read-out: ka
# T1 construct: purchased Abcam
# Experimental: For this purpose, HDAC5 protein (Abcam, MA, USA) was dissolved in sodium acetate buffer (pH 4.5), and was bound to a dextran-covered sensor chip surface (CM5 chip) using N-hydroxysuccinimide (NHS) and N-ethyl-N0-(3-dimethylaminopropyl)-carbodiimide hydrochloride (EDAC) as crosslinkers. The unreacted active group of dextran was blocked by the addition of ethanolamine (1M) thereto. The number of HDAC5 binding to the chip was measured as 4440RU (1000 RU=1 ng/mm^2). […] Rate constants for association (ka) and dissociation (kd), and a dissociation constant (KD) were calculated using BIAevaluation software and a 1:1 binding model.
# [1] = system: collagen-induced arthritis (CIA) rats; test: Collagen-induced arthritis animal model; assay type: in vivo, Wistar rats
# Source text: In order to determine whether or not the peptide according to the present invention is effective in treating rheumatoid arthritis in vivo, the effect of treating arthritis thereof was detected in a collagen-induced arthritis animal model. For this purpose, female Wistar rats (105-135 g, n=67) were purchased from Harlan Co. Ltd. (Indianapolis, IN, USA). All rats were bred in a pathogen-free environment and sterilized standard rat feed (Harlan Co. Ltd, USA) and water were freely fed to the rats. Animal experiments were conducted with the approval of the Institutional Animal Care and Use Committee (IACUC) of Seoul National University. Collagen-induced arthritis was induced in a known manner (Nishikawa et al., Arthritis and rheumatism. 2003; 48:2670-81).
# Specifically, 500 μg of bovine collagen type II was injected along with a mixture of 0.5 mL of 0.1 M acetic acid and 0.5 mL of Freund's incomplete adjuvant into rat muscle. On the 7th day, 0.5 mL of 0.1 M acetic acid and 0.5 mL of Freund's incomplete adjuvant were further inoculated along with 250 μg of bovine collagen type II to produce collagen-induced arthritis (CIA) rats. The rats were classified into a CIA-induced group (n=10), a CIA-induced group injected with a low concentration of the peptide of SEQ ID NO: 1 (LD AIP, 15 mg/kg, n=10), a CIA-induced group injected with a high concentration of the peptide of SEQ ID NO: 1 (HD AIP, 30 mg/kg, n=10), a CIA-induced group injected with etanercept (Enbrel) (10 mg/kg, n=10), and a normal group (n=6). From 28 days after the first collagen injection, the peptide of SEQ ID NO: 1 was injected subcutaneously into the back of the neck twice a week over 4 weeks. Etanercept was injected intraperitoneally three times a week over 4 weeks. Swelling of both hind paws was measured twice using a plethysmometer (LE7500 N, IWOO Scientific Corporation, KOREA) on day 22, 29, 31, 35, 38, 42, 45, 49, 52, and 56. The plethysmometer was used after calibration to a weight of 3 mL. The measured area was marked by drawing a line, and measurement was conducted adjacent to the ankle. Hind paw swelling increase (%) and hind paw swelling inhibition (%) were calculated using the following equations.
# In order to observe the degree of bone damage in the hind paw, microcomputed tomography (micro-CT) was performed using a SkyScan 1172 (SkyScan, Aartselaar, Belgium). The total volume (TV; mm^3), bone volume (BV; mm^3) and bone volume fraction (BV/TV; %) were analyzed using CTAn software. On the 57th day, rats were sacrificed and subjected to histological analysis. Both hind paws and joints were collected, fixed in 10% buffered formalin, and demineralized in 30% citrate-buffered formic acid at 4° ° C. for 3 days. Paraffin blocks were produced, sliced into sections with a thickness of 4 μm and stained with hematoxylin and eosin (H&E), and then the pathological score was evaluated with an optical microscope. The joint inflammation index was measured based on the following criteria (Shiozawa et al., J Clin Invest. 1997; 99 (6):1210-1216). 0, normal synovium; 1, synovial membrane hypertrophy and cell infiltrates; 2, pannus and cartilage erosion; 3, major erosion of cartilage and subchondral bone; and 4, loss of joint integrity and ankylosis.
# The rats were sacrificed and systemic blood was collected, and the concentrations of TNF-α and IL-6 in the blood were measured with an ELISA kit (R&D, Minneapolis, MN, USA).
# T1 sequence (Q9UQL6 whole entry, species assumed): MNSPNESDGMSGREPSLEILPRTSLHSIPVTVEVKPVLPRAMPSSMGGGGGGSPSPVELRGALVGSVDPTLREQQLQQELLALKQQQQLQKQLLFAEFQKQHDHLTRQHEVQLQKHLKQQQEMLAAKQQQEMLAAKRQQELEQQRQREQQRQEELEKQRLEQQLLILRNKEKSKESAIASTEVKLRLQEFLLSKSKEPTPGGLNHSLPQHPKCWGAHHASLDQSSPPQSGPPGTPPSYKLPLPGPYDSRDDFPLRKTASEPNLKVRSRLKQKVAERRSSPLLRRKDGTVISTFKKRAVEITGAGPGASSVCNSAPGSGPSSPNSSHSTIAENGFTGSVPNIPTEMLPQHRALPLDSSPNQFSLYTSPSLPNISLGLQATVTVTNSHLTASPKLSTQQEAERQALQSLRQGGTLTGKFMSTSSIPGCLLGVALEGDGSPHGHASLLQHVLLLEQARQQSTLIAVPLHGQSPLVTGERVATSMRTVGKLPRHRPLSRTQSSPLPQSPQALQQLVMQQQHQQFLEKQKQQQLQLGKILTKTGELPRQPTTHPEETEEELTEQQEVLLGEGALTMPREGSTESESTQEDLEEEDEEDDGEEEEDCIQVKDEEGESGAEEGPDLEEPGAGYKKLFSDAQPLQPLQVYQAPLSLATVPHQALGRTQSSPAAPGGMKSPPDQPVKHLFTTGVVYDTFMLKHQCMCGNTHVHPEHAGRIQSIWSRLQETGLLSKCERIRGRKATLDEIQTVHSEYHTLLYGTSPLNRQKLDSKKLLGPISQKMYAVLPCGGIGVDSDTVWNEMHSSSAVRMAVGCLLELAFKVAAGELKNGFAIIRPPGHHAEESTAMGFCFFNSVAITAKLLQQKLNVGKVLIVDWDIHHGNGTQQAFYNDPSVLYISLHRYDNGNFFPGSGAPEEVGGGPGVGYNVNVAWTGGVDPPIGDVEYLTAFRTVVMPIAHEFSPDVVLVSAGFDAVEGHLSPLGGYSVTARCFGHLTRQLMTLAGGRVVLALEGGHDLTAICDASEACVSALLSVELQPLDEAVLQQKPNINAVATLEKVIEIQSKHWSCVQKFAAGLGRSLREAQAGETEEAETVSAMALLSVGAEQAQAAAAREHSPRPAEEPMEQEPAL
Molecule,kd (HDAC5 protein) [s⁻¹],kon (HDAC5 protein) [M⁻¹ s⁻¹],Kd (HDAC5 protein) [nM],also measured
CSCC[C@H](NC(=O)[C@H](CS)NC(=O)[C@H](CCCCN)NC(=O)[C@H](CCCNC(=N)N)NC(=O)CNC(=O)[C@H](CCCNC(=N)N)NC(=O)[C@@H](NC(=O)[C@H](CO)NC(=O)[C@H](CS)NC(=O)[C@H](CCCCN)NC(=O)CN)[C@@H](C)O)C(=O)N[C@@H](CCCNC(=N)N)C(=O)N[C@@H](CCCNC(=N)N)C(=O)N[C@@H](CCCCN)C(=O)N[C@@H](CCCCN)C(=O)O [SEQ ID NO: 2] (H-GKCSTRGRKCMRRKK-OH; N-terminus and C-terminus assumed),0.06872,74400,–,–
CSCC[C@H](NC(=O)[C@H](CCCCN)NC(=O)[C@H](CCCNC(=N)N)NC(=O)CNC(=O)[C@H](CCCNC(=N)N)NC(=O)[C@@H](NC(=O)[C@H](CO)NC(=O)[C@H](CS)NC(=O)[C@H](CCCCN)NC(=O)CN)[C@@H](C)O)C(=O)N[C@@H](CS)C(=O)N[C@@H](CCCNC(=N)N)C(=O)N[C@@H](CCCNC(=N)N)C(=O)N[C@@H](CCCCN)C(=O)N[C@@H](CCCCN)C(=O)O [SEQ ID NO: 3] (H-GKCSTRGRKMCRRKK-OH; N-terminus and C-terminus assumed),0.05953,82100,–,–
CSCC[C@H](NC(=O)[C@H](CCCCN)NC(=O)[C@H](CCCNC(=N)N)NC(=O)CNC(=O)[C@H](CCCNC(=N)N)NC(=O)[C@@H](NC(=O)[C@H](CO)NC(=O)[C@H](CS)NC(=O)[C@H](CCCCN)NC(=O)CN)[C@@H](C)O)C(=O)N[C@@H](CCSC)C(=O)N[C@@H](CCCNC(=N)N)C(=O)N[C@@H](CCCNC(=N)N)C(=O)N[C@@H](CCCCN)C(=O)N[C@@H](CCCCN)C(=O)O [SEQ ID NO: 4] (H-GKCSTRGRKMMRRKK-OH; N-terminus and C-terminus assumed),0.06788,72200,940,–
CSCC[C@H](NC(=O)[C@H](CCCCN)NC(=O)CN)C(=O)N[C@@H](CO)C(=O)N[C@H](C(=O)N[C@@H](CCCNC(=N)N)C(=O)NCC(=O)N[C@@H](CCCNC(=N)N)C(=O)N[C@@H](CCCCN)C(=O)N[C@@H](CS)C(=O)N[C@@H](CS)C(=O)N[C@@H](CCCNC(=N)N)C(=O)N[C@@H](CCCNC(=N)N)C(=O)N[C@@H](CCCCN)C(=O)N[C@@H](CCCCN)C(=O)O)[C@@H](C)O [SEQ ID NO: 5] (H-GKMSTRGRKCCRRKK-OH; N-terminus and C-terminus assumed),0.03088,65900,–,–
CSCC[C@H](NC(=O)[C@H](CCCCN)NC(=O)CN)C(=O)N[C@@H](CO)C(=O)N[C@H](C(=O)N[C@@H](CCCNC(=N)N)C(=O)NCC(=O)N[C@@H](CCCNC(=N)N)C(=O)N[C@@H](CCCCN)C(=O)N[C@@H](CCSC)C(=O)N[C@@H](CS)C(=O)N[C@@H](CCCNC(=N)N)C(=O)N[C@@H](CCCNC(=N)N)C(=O)N[C@@H](CCCCN)C(=O)N[C@@H](CCCCN)C(=O)O)[C@@H](C)O [SEQ ID NO: 6] (H-GKMSTRGRKMCRRKK-OH; N-terminus and C-terminus assumed),0.04463,100000,444,–
CSCC[C@H](NC(=O)[C@H](CCCCN)NC(=O)CN)C(=O)N[C@@H](CO)C(=O)N[C@H](C(=O)N[C@@H](CCCNC(=N)N)C(=O)NCC(=O)N[C@@H](CCCNC(=N)N)C(=O)N[C@@H](CCCCN)C(=O)N[C@@H](CS)C(=O)N[C@@H](CCSC)C(=O)N[C@@H](CCCNC(=N)N)C(=O)N[C@@H](CCCNC(=N)N)C(=O)N[C@@H](CCCCN)C(=O)N[C@@H](CCCCN)C(=O)O)[C@@H](C)O [SEQ ID NO: 7] (H-GKMSTRGRKCMRRKK-OH; N-terminus and C-terminus assumed),0.04757,67500,704,–
CSCC[C@H](NC(=O)[C@H](CCCCN)NC(=O)CN)C(=O)N[C@@H](CO)C(=O)N[C@H](C(=O)N[C@@H](CCCNC(=N)N)C(=O)NCC(=O)N[C@@H](CCCNC(=N)N)C(=O)N[C@@H](CCCCN)C(=O)N[C@@H](CCSC)C(=O)N[C@@H](CCSC)C(=O)N[C@@H](CCCNC(=N)N)C(=O)N[C@@H](CCCNC(=N)N)C(=O)N[C@@H](CCCCN)C(=O)N[C@@H](CCCCN)C(=O)O)[C@@H](C)O [SEQ ID NO: 8] (H-GKMSTRGRKMMRRKK-OH; N-terminus and C-terminus assumed),0.004776,55000,86.8,–
etanercept [reference compound],–,–,–,"Concentration of IL-6 in blood ([1]; ELISA, high concentration of peptide or etanercept, CIA-induced group 109 pg/ml): 24 pg/mL; Concentration of TNF-α in blood ([1]; ELISA, high concentration of peptide or etanercept, CIA-induced group 128 pg/ml): 39 pg/mL; Microscopic observation of joint tissues (inflammation, H&E) ([1]; FIG. 4A): results similar to the CIA-induced group injected with a low concentration of SEQ ID NO: 1; Hind paw swelling inhibition (%) ([1]; etanercept 10 mg/kg intraperitoneally): 37%; Hind paw swelling (%) ([1]; peptide 15 or 30 mg/kg subcutaneously twice a week, etanercept 10 mg/kg intraperitoneally three times a week, 4 weeks): decreased hind paw swelling (%) within 35 to 56 days (P<0.05); Inflammation index ([1]; score 0-4, CIA-induced group 3.3±0.67): 2.3±1.16"
